From patent US20080119462A1, “METHOD FOR TREATING VASCULAR HYPERPERMEABLE DISEASE” (Sucampo AG, priority 2003, published 2008)
Counter-ions that a name gives are not always drawn.

How the values were obtained:
[1] = system: diabetic rats; assay: Ocular permeability in STZ diabetic rats (leakage of fluorescein into the vitreous); type: in vivo, rat; conditions: daily from 2 weeks after STZ, mean ± S.E.M., 10 rats
Experimental: Diabetes in rats was induced with an intraperitoneal (i.p.) injection of 65 mg/ml/kg of streptozotocin (STZ) in 2 mmol/l citrate buffer (pH 4.5) after a 20-h fast. At the same time control rats were injected with an equal volume of 2 mmol/l citrate buffer. Plasma glucose level was checked by a calorimetric method. At day 3 of STZ treatment, the rats were diagnosed with diabetes showing a plasma glucose level of 350 mg/dl.
The treatment of Compound A was given daily from 2 weeks after STZ treatment for 2 weeks. At 24 hrs after final treatment of Compound A, the vascular permeability in oculus was investigated based on the leakage of dye into the vitreous 30 min after intravenous injection of fluorescein solution (40 mg/ml/kg). Permeability was expressed as vitreous/plasma ratio of fluorescein concentration measured by a fluorophotometer. At the same time, the plasma SSAO activity was checked by the radiochemical-enzyme assay using ^14C-benzylamine (2×10^−5 mol/l final concentration) as substrate.
In the same manner as in Example 2, the effect of various VAP-1 inhibitors on ocular permeability was determined in diabetic rats.

Compound	melting point [°C]	Vitreous/Plasma Ratio of Fluorescein Concentration ([1]; 0.1 mg/kg, s.c.)	Vitreous/Plasma Ratio of Fluorescein Concentration ([1]; 0.003%, ocular instillation, u.i.d.)
CC(=N)Nc1ccc(CCc2nc(NC(C)=O)sc2Cc2ccc(S(C)(=O)=O)cc2)cc1 [Production Example 56, N-{4-{2-[4-(ethanimidoylamino)phenyl]ethyl}-5-[4-(methylsulfonyl)benzyl]-1,3-thiazol-2-yl}acetamide]	81.5 to 83		
C=NOCc1ccc(CCc2csc(NC(C)=O)n2)cc1 [Production Example 17, N-{4-[2-(4-{[(methyleneamino)oxy]methyl}phenyl)ethyl]-1,3-thiazol-2-yl}acetamide]	136.5 to 137		
CC(=O)Nc1nc(CCc2ccc(C(=O)NC(=N)N)cc2)c(Cc2ccc(S(C)(=O)=O)cc2)s1 [Production Example 106, 4-(2-{2-(acetylamino)-5-[4-(methylsulfonyl)benzyl]-1,3-thiazol-4-yl}ethyl)-N-[amino(imino)methyl]benzamide]	108 to 109.5		
CC(=O)Nc1nc(CCc2ccc(CON)cc2)cs1 [Compound B, N-[4-(2-{4-[(aminooxy)methyl]phenyl}ethyl)-1,3-thiazol-2-yl]acetamide]	130 to 130.5	7.54 ± 0.80 ×10^−3	9.86 ± 1.65 ×10^−3
CC(=O)Nc1nc(CCc2ccc(NC(=N)N)cc2)c(Cc2ccc(S(C)(=O)=O)cc2)s1 [Production Example 48, N-{4-[2-(4-{[amino(imino)methyl]amino}phenyl)ethyl]-5-[4-(methylsulfonyl)benzyl]-1,3-thiazol-2-yl}acetamide]	228 to 229.5		
CC(=O)Nc1nc(CCc2ccc(CC(=N)N)cc2)cs1 (as salt: hydrochloride) [Production Example 59, N-(4-{2-[4-(2-amino-2-iminoethyl)phenyl]ethyl}-1,3-thiazol-2-yl)acetamide]	190.5 to 192		
CC(=O)Nc1nc(CCc2ccc(NC3=NCCN3)cc2)c(Cc2ccc(S(C)(=O)=O)cc2)s1 [Production Example 55, N-{4-{2-[4-(4,5-dihydro-1H-imidazol-2-ylamino)phenyl]ethyl}-5-[4-(methylsulfonyl)benzyl]-1,3-thiazol-2-yl}acetamide]	139 to 140		
CC(=O)Nc1nc(CCc2ccc(C(=N)N)cc2)cs1.Cl	229.5 to 231		
CC(=O)Nc1nc(CCc2ccc(NC3=NCCS3)cc2)cs1 [Production Example 2, N-(4-(2-(4-(4,5-dihydro-1,3-thiazol-2-ylamino)phenyl)ethyl)-1,3-thiazol-2-yl)acetamide]	218 to 219.5		
